According to publication PMC12332266 (Frontiers in Pharmacology, 2025):
Read-outs that look alike come from different tables or passages of the source.

What was measured:
[1] = test system: hiPSC-CM (iCell Cardiomyocytes^2); assay: Intracellular miRNA expression by RT-qPCR in hiPSC-CM pellets after 72-hour treatment; conditions: for fold induction at 0.1 µM / fold induction at 0.3 µM / fold induction at 1 µM / fold induction at 3 µM: Homo sapiens, 72 h
Method: (§1) Culture media change was performed every 2 days.
Total RNA was extracted from hiPSC-CM using the miRNeasy 96 Kit (Qiagen, Hilden, Germany) following the manufacturer’s recommendations. After the extraction, RNA purity was assessed by NanoDrop™ 8000 Spectrophotometer (Thermo Fisher Scientific Inc.). 5–10 ng/μL of RNA per sample were reverse transcribed and pre-amplified by using the TaqMan™ Advanced miRNA cDNA Synthesis Kit (Thermo Fisher Scientific Inc.). The synthesized cDNA was used for RT-qPCR with selected TaqMan™ assays (Thermo Fischer Scientific Inc.). RT-qPCR was carried out following the Applied Biosciences TaqMan miRNA expression assay protocol on a ViiA7 instrument (Thermo Fisher Scientific, Inc.). […] Therefore, to maximize the number of drugs and concentrations, explored in the same study, we pooled the triplicates for intracellular profiling of miRNAs. Therefore, no statistical analysis was performed on the data of miRNA profiling in the pellets of hiPSC-CM.
Following RTCA CardioECR assessment, hiPSC-CM cell pellets were collected, and total RNA was extracted and purified to investigate miRNAs upregulation by RT-qPCR. […] For the initial assessment of intracellular miRNAs in 12 different treatments, encompassing various drug classes, we used a panel of 17 miRNAs, which we selected from the publicly available data focusing mainly on in vitro models and structural cardiotoxicants (Supplementary Table S2).

[2] = ref extensive literature search, cited from earlier work
[3] = test system: hiPSC-CM (iCell Cardiomyocytes^2); assay: RTCA CardioECR assessment (impedance and electrophysiology parameters); conditions: for RTCA, MEC (CI): change ≥20%, Table 2
Method: as §1
After seeding on fibronectin-coated xCELLigence ePlates (Agilent Technologies, Inc. Santa Clara, CA, USA), iCell^2 CM were monitored continuously through impedance electrodes. The following impedance parameters were measured: Cell Index (CI, measure of cell “health” and monolayer integrity), beating rate (BR) and amplitude (CI Amplitude, magnitude of contraction). Electrophysiology-like parameters (Field Potential Duration (FPD), considered as a surrogate for QT in in vivo studies, and Spike Amplitude (SA), depolarization induced by Na^+ channel opening) were measured starting from day 4–6, following the monolayer formation. […] All RTCA CardioECR data were double normalized (DMSO control and the baseline) with no further statistical group comparison for the normalized parameters. The variability of the data within the treatment groups was assessed by standard deviation.

[4] = read-out: hsa-miR-7-5p fold change
[5] = read-out: hsa-miR-29a-5p fold change
[6] = read-out: hsa-miR-96-5p fold change
[7] = read-out: hsa-miR-126-3p fold change
[8] = read-out: hsa-miR-133b fold change
[9] = read-out: hsa-miR-146b-5p fold change
[10] = read-out: hsa-miR-182-5p fold change
[11] = read-out: hsa-miR-185-3p fold change
[12] = read-out: hsa-miR-187-3p fold change
[13] = read-out: hsa-miR-208b-3p fold change
[14] = read-out: hsa-miR-365a-5p fold change

## CC(=O)[C@]1(O)Cc2c(O)c3c(c(O)c2[C@@H](O[C@H]2C[C@H](N)[C@H](O)[C@H](C)O2)C1)C(=O)c1ccccc1C3=O [Idarubicin]
[1]
  miRNAs hiPSC-CM pellet, MEC overall: 0.3 µM
  miRNAs upregulated at the MEC overall (hiPSC-CM pellet): miR-96 -5p, miR-126-3p, miR-133b, miR-185-3p
[1]; [4]
  fold induction at 0.1 µM: 4.5
  fold induction at 0.3 µM: 5.8
  fold induction at 1 µM: 3.5
  fold induction at 3 µM: 0.2
[1]; [5]
  fold induction at 0.1 µM: 1.2
  fold induction at 0.3 µM: 4.4
  fold induction at 1 µM: 1.2
  fold induction at 3 µM: 3
[1]; [6]
  fold induction at 0.1 µM: 9
  fold induction at 0.3 µM: 21.3
  fold induction at 1 µM: 53.4
  fold induction at 3 µM: 0.8
[1]; [7]
  fold induction at 0.1 µM: 1
  fold induction at 0.3 µM: 1.3
  fold induction at 1 µM: 0.7
  fold induction at 3 µM: 1.1
[1]; [8]
  fold induction at 0.1 µM: 0.5
  fold induction at 0.3 µM: 2.5
  fold induction at 1 µM: 1.2
  fold induction at 3 µM: 10.9
[1]; [9]
  fold induction at 0.1 µM: 3.5
  fold induction at 0.3 µM: 7.3
  fold induction at 1 µM: 2
  fold induction at 3 µM: 3.4
[1]; [10]
  fold induction at 0.1 µM: 0.03
  fold induction at 0.3 µM: 0.1
  fold induction at 1 µM: 0.4
  fold induction at 3 µM: 0.7
[1]; [11]
  fold induction at 0.1 µM: 1.6
  fold induction at 0.3 µM: 1.3
  fold induction at 1 µM: 1
[1]; [12]
  fold induction at 0.1 µM: 9
  fold induction at 0.3 µM: 8.5
  fold induction at 1 µM: 2.9
  fold induction at 3 µM: 1.9
[1]; [13]
  fold induction at 0.1 µM: 0.5
  fold induction at 0.3 µM: 0.6
  fold induction at 1 µM: 0.8
  fold induction at 3 µM: 2
[1]; [14]
  fold induction at 0.1 µM: 3.5
  fold induction at 0.3 µM: 2.1
  fold induction at 1 µM: 1.1
  fold induction at 3 µM: 3.4
[1]; read-out: hsa-miR-[…] change
  fold induction at 0.1 µM: 1
  fold induction at 0.3 µM: 1.1
  fold induction at 1 µM: 0.7
  fold induction at 3 µM: 3.4
[2]; Supplementary Table 1
  Cmax total: 120 to 3800 nM
[2]; Table 1
  Cmax total: 120 to 3800 nM
[3]; hiPSC-CM, 72-hour treatment, lowest concentration causing at least 20% change from baseline
  Cell index (CI) MEC: 0.1 µM
[3]; hiPSC-CM
  RTCA, MEC (CI): 0.1 µM (CI, BR)
[3]; human, 72 h
  Beating Rate MEC: 0.1 µM
  Beating rate (BR) MEC: 0.1 µM
  Cell Index MEC: 0.1 µM
  Contractility Amplitude MEC: 1 µM
  Field Potential Duration MEC: 0.1 µM
  RTCA, MEC (BR): 0.1 µM (CI, BR)
  Spike Amplitude (SA) MEC: 0.1 µM

## CS(=O)(=O)CCNCc1ccc(-c2ccc3ncnc(Nc4ccc(OCc5cccc(F)c5)c(Cl)c4)c3c2)o1 [Lapatinib]
[1]
  miRNAs hiPSC-CM pellet, MEC overall: 0.1 µM
  miRNAs upregulated at the MEC overall (hiPSC-CM pellet): miR-126-3p, miR-146b-5p, miR-182-5p, miR-187-3p
[2]; Supplementary Table 1
  Cmax total: 4180 nM
[2]; Table 1
  Cmax total: 4180 nM
[3]; hiPSC-CM
  RTCA, MEC (CI): ND (ND – not detected, magnitude of change was lower than 20% for CI/BR)
[3]; human, 72 h
  Field Potential Duration MEC: 0.1 µM
  Spike Amplitude (SA) MEC: 0.1 µM
